Our source for the EC50 values is paper PMC3757052, “Molecular Cloning and Characterization of Novel Glutamate-Gated Chloride Channel Subunits from Schistosoma mansoni” (PLoS Pathogens, 2013).

Common to all, as to test: two-electrode voltage clamp in Xenopus oocytes
What all share (type): cell-based
On the technique in general: In two-electrode clamp one electrode senses voltage and the other passes current.

Experiment [1] addresses T1, SmGluCl-2.1 (SmGluCl-2) (Schistosoma mansoni, UniProt T2C5A6).
T1 construct: gene GluCl; full-length subunit isoform 1, homomeric receptor (KC861382)

Experiment [2] deals with T2, SmGluCl-1 (Schistosoma mansoni, UniProt G4VR43).
T2 construct: full-length subunit co-expressed 1:1 with SmGluCl-2.1 (heteromer; no functional SmGluCl-1 homomer); with SmGluCl-2.1
T2 sequence (T2C5A6 entry or part of it): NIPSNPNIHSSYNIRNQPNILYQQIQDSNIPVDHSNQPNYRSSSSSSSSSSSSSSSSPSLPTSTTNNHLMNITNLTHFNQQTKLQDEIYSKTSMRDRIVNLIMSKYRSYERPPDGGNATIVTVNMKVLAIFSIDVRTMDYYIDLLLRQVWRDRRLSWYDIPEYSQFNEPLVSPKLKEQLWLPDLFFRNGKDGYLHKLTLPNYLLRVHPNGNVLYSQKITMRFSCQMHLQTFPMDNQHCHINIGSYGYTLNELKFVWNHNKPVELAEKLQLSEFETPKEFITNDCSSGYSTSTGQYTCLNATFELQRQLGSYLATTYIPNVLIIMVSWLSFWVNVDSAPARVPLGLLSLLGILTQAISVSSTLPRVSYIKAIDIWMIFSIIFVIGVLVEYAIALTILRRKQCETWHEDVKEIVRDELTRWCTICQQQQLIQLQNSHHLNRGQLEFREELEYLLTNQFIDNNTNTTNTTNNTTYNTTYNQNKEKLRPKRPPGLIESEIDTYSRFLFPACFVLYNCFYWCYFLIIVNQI
T2 sequence (G4VR43 entry or part of it): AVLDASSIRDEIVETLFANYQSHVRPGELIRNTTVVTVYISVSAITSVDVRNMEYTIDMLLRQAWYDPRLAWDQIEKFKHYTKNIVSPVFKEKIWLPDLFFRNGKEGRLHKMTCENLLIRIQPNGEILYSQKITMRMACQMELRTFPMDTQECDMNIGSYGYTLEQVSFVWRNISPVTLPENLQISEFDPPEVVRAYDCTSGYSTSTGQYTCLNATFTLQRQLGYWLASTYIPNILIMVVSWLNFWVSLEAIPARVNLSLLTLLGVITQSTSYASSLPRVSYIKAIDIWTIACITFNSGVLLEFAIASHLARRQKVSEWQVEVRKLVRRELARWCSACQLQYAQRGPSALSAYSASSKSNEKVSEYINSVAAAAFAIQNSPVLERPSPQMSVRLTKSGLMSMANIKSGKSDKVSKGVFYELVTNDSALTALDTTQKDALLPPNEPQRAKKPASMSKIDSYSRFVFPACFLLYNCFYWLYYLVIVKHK

For experiment [3], the target named is T3, SmGluCl-3 (Schistosoma mansoni, UniProt T2C5W6).
T3 construct: gene GluCl; full-length subunit, homomeric receptor (KC861384)
T3 sequence (T2C5W6 entry or part of it): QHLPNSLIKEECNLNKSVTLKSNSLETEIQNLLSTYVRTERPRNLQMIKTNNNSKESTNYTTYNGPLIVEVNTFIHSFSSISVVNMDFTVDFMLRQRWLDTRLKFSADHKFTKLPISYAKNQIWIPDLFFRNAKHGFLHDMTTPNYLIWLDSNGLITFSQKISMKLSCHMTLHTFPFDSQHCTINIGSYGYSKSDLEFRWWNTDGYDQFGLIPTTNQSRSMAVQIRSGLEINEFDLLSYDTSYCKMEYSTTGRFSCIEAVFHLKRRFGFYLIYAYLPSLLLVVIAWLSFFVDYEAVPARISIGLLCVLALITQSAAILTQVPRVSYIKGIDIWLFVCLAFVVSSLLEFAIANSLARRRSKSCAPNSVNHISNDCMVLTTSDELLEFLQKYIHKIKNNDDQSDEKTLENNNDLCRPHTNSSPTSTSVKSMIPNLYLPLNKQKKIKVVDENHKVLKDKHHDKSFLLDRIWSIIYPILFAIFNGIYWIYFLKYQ

For orientation: EC50 means the midpoint of the concentration-response curve.

T1 sequence (T2C5A6 entry or part of it): as the sequence (T2C5A6 entry or part of it) above

On to `N[C@@H](CCC(=O)O)C(=O)O` [L-glutamate], for which the EC50 in experiment [1] was 11.8 ± 0.6 µM; in experiment [2], 26.3 ± 2 µM; in experiment [3] it was 6.9 ± 0.5 µM.
